Consider 59 molecules from PMC9995496, “A screen for MeCP2-TBL1 interaction inhibitors using a luminescence-based assay” (Scientific Reports, 2023).

This test addresses T1, MeCP2-TBL1 interaction (MeCP2-SmBiT / TBL1-LgBiT) (Mus musculus, UniProt Q9QXE7).
T1 construct: expressed in transfected cells; crude lysate used as a cell-free assay
T1 sequence (Q9QXE7 166-527): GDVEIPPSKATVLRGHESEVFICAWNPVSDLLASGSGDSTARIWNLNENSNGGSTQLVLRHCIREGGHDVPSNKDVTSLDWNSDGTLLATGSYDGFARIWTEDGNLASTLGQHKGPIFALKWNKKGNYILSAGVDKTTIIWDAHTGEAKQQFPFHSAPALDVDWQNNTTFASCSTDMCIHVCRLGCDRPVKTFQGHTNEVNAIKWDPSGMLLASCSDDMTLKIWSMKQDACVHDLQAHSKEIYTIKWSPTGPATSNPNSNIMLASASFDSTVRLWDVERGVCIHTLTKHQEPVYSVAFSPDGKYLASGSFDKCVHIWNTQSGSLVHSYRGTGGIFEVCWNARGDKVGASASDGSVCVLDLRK
Kind of test: MeCP2-TBL1 NanoLuc luciferase complementation assay (cell-free, extracts of transfected HEK293 cells).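 Further: each compound tested at 20 µM final concentration.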 Format: binding, human. In outline:
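Cell-free split NanoLuc: lysate of HEK293 cells co-expressing the MeCP2 C-terminal half-SmBiT and TBL1 WD domain-LgBiT, mixed 1:1 with furimazine. After 30 min at room temperature, luminescence was plate-median normalized.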

Where [1] appears, read: primary screen of the Asinex library, sheet "Sargen output Asinex library", one well per compound, Batch Ref. 1.
The mark [2] stands for this setting: primary screen of the Asinex library, sheet "Sargen output Asinex library", one well per compound.
Setting [3] is: primary screen of Asinex library, single well per compound.

`CCOc1ccc(CN2CCCC2c2ncc(C(=O)NCc3ccc(F)cc3)c(C)n2)cc1` (centres unmarked) [BDC_23170699]: the Inhibition percent under setting [1] is on record as -3.60%. The same measure, in the same setting: the same measure for `COc1cccc(CN2CCC3(C/C=C/COc4ccccc4C(=O)NCCNC3=O)CC2)c1F` [BDH_33701964]: -0.89%; for `Cc1ccccc1Cc1cccc(C2CN(C(=O)c3nccc4ccccc34)CCO2)n1` (centres unmarked) [BDF_25249064]: 6.97%; for `CCCCC[C@]1(O)CCN(S(=O)(=O)c2ccccc2)C[C@@H]1Oc1cccc(F)c1` [BDH_34032183]: 9.13%. Take `O=C1OC2(CCCN(C(=O)c3ccnc(N4CCOCC4)c3)CC2)CN1CCc1ccccc1` (centres unmarked) [BDH_32370969]: under setting [2], the Inhibition percent is -1.73%.

Take `COc1cccc(Cc2cnc(C3CCCCN3C(=O)COc3ncnc4ccccc34)o2)c1` (centres unmarked) [BDE_33513545]: the Inhibition percent under setting [2] was 0.39%.

`COc1ccc(CCC(=O)N2CCCC(c3cncc(-c4cccc(OC)c4)n3)C2)cc1` (centres unmarked) [BDD_27924033]: the Inhibition percent under setting [1] came out at 11.34%.

With `Cc1nc(C2CCCN2C(=O)c2ccncc2)nc2c1CCC(=O)N2CCc1ccccc1` (centres unmarked) [BDE_26909882], the Inhibition percent under setting [2] was -1.75%. As for `COc1cccc(Nc2ncccc2C(=O)N2CCOCC(Cc3nccn4cccc34)C2)c1` (centres unmarked) [BDH_32366009], the Inhibition percent under setting [1] is listed as -5.94%.

In the case of `O=[N+]([O-])c1ccc2c(c1)[C@H]1OCCC[C@@H]1C1(CCCCC1)O2` [BDG_33907582], the Inhibition percent under setting [2] was 0.74%. In the case of `Cc1c(F)cccc1NC(=O)CN1[C@H](Cc2ccccc2)C[C@]2(C)NC(=O)CCC[C@H]12` [BDH_24639961], under setting [1], the Inhibition percent is 0.80%. For `C[C@]12C[C@@H](Cc3ccccc3)N(C(=O)C3CCN(Cc4cccnc4)CC3)[C@H]1CCCC(=O)N2` [BDH_33630330], under setting [1], the Inhibition percent is given as -0.000826%. The same measure, in the same setting: the same measure for `COc1ccccc1NC(=O)C1CN(C(=O)COc2ccccc2)Cc2cn(C)nc21` (centres unmarked) [BDC_23414979]: -4.37%; for `Cn1c(=O)c2c(ncn2CCC(=O)N2[C@H](Cc3ccccc3)C[C@]3(C)NC(=O)CCC[C@H]23)n(C)c1=O` [BDH_33628646]: 0.10%. Regarding `Cc1ccc(C2(C(=O)N3CCC4(CC3)CC(Oc3ccccc3)CO4)CCOCC2)cc1` (centres unmarked) [BDH_32343765], the Inhibition percent under setting [3] came to 1.12. On to `CC(C)=CCC[C@]1(C)Oc2cc(OCC(N)=O)ccc2[C@H]2OC[C@@]3(CCCN(C(=O)OC(C)(C)C)C3)C[C@@H]21` [BDH_33958782], for which the Inhibition percent under setting [1] came to 7.79%.

Consider `COc1cccc2c1OC(C)(C)[C@H]1CC3(CCNCC3)[C@H](C)O[C@H]21` [BDG_33959669], for which the Inhibition percent under setting [2] turned out to be 0.05%.

`COc1ccc(NC(=O)CN2CC[C@@]3(NC(C)=O)CN(C(C)=O)[C@H](c4ccccc4)[C@H]3C2)cc1` [BDH_33626570]: under setting [1], the Inhibition percent is -3.55%. For the molecule `Cn1cc(-c2cccc(C(=O)N3CCC(c4cccc(Cc5ccc(F)cc5)n4)CC3)n2)cn1` [BDH_32365359], the Inhibition percent under setting [2] was 2.72%. Regarding `CCOc1cccc2c1OC(C)(C)[C@H]1CC3(CCN(Cc4cnc(NC)nc4)CC3)CO[C@H]21` [BDG_33691710], under setting [3], the Inhibition percent was -4.17. Regarding `CC(C)(CC(=O)O)CC(=O)N1CC[C@@H]2O[C@@H]3c4cc(Cl)ccc4OC(C)(C)[C@H]3C[C@@H]2C1` [BDG_34130555], the Inhibition percent under setting [3] worked out at 0.45. Consider `CC1(C)Oc2cc(O)ccc2[C@H]2OCC3(CCN(C(=O)c4ncccc4O)CC3)C[C@@H]21` [BDG_33691662], for which, under setting [1], the Inhibition percent was -1.26%. Same read-out and setting: in the case of `Cc1cccnc1C(=O)N1CC2(CO[C@@H]3c4ccccc4OC(C)(C)[C@H]3C2)C1` [BDG_33739514] it was 0.31%.

As for `COc1cccc2c1OC(C)(C)[C@H]1CC3(CO[C@H]21)CN(Cc1cn(C)cn1)C3` [BDG_33739186], the Inhibition percent under setting [2] is listed as -0.50%.

Consider `COc1ccc([C@@H]2C[C@]3(C)NC(=O)CCC[C@@H]3N2CC(=O)Nc2ccc3c(c2)nc(C)n3C)cc1` [BDH_33618124], for which the Inhibition percent under setting [1] amounted to 4.89%. As to `COc1cccc([C@@H]2C[C@]3(C)NC(=O)CCCC[C@@H]3N2CC(=O)Nc2ccc(OC(F)F)cc2)c1` [BDH_33624322], the Inhibition percent under setting [2] is recorded as 7.98%. For `CC1(C)Oc2ccc(OCc3ccccc3)cc2[C@@H]2O[C@H](CC(=O)O)CC[C@H]21` [BDG_34041764], under setting [3], the Inhibition percent was 0.20.

Turning to `Cc1nnc(N2CCC(C3CC=CCN(Cc4ccc(F)cc4)C3=O)CC2)c2ccccc12` (centres unmarked) [BDE_24723072], the Inhibition percent under setting [1] is -0.22%. Still for that read-out and setting: in the case of `C[C@]12C[C@@H]3N[C@H]1CCC[C@H]2N(C(=O)COc1ccccc1F)[C@H]3Cc1ccccc1` [BDG_33391690] it was 4.10%; in that of `CS(=O)(=O)c1ccc(CN2CCC3(CC2)Oc2ccc(Cl)cc2[C@H]2OCCC[C@@H]23)cc1` [BDG_33900656], -0.96%. With `O=C(c1ccnc(Cc2cccc(F)c2)c1)N1CCC[C@]2(C[C@@H](Oc3ccc(F)cc3)CO2)C1` [BDH_32304392], under setting [2], the Inhibition percent is recorded as 5.07%. With `COc1cccc(Cc2cnc(C3CCCCN3C(=O)c3cccnc3-c3cncs3)o2)c1` (centres unmarked) [BDE_33514740], the Inhibition percent under setting [1] came to 1.71%.

`O=C(Cn1ncc2ccccc2c1=O)N1CCCCC1c1ncc(Cc2ccccc2F)o1` (centres unmarked) [BDE_33507923]: under setting [1], the Inhibition percent came out at 3.33%. As to `CC1CCN(C(=O)CN2CCC(C3CCCCN(CCc4ccccc4)C3=O)CC2)CC1` (centres unmarked) [BDE_25214814], the Inhibition percent under setting [2] was -2.53%. Consider `C[C@@H]1CC[C@@H]2[C@@H](C1)c1c(ccc(C(=O)NCCN(C)C)c1O)OC2(C)C` [BDG_33904603], for which the Inhibition percent under setting [1] is on record as 9.91%. On the same count and under the same terms, in the case of `COc1ccc([C@@H]2C[C@]3(C)NC(=O)CCC[C@@H]3N2CC(=O)NCc2ccc3[nH]c(C)c(C)c3c2)cc1` [BDH_33623525] it was -0.10%.

In the case of `CCOc1ccccc1NC(=O)N(C(C)c1ccccc1)C1CCn2c1nc1ccccc1c2=O` (centres unmarked) [BDD_27845157], under setting [2], the Inhibition percent is given as -3.22%.

For `Cn1cc(C(=O)Nc2cccc(C(=O)N3CCCC(Cc4ccnc5ccccc45)CC3)c2)cn1` (centres unmarked) [BDH_32361062], the Inhibition percent under setting [2] is listed as -0.32%. As for `COCC(=O)N1CCC(C)(C(=O)N2CCC[C@]3(C[C@@H](Oc4cccc(F)c4)CO3)C2)CC1` [BDH_32375031], the Inhibition percent under setting [2] is listed as -4.50%. Same read-out and setting: in the case of `Cc1ccc(CC(=O)N2CCCC(c3ncccc3C(=O)NCc3ccccc3)C2)cc1C` (centres unmarked) [BDE_24458967] it was -0.34%; in that of `Cc1cnc(C(=O)N2CCC(Cc3nc(C)ncc3C(=O)NCc3ccccc3)CC2)cn1` [BDD_23852576], 0.67%. For `CNC(=O)C1CN(C(=O)C2(C)CCN(C(=O)c3ccccc3)CC2)CCN1Cc1ccccc1` (centres unmarked) [BDH_32370904], the Inhibition percent under setting [3] is on record as -3.09.

Regarding `C[C@]12C[C@@H](Cc3ccccc3)N(CC(=O)Nc3cccc(C(F)(F)F)c3)[C@H]1CCCC(=O)N2` [BDH_33616434], under setting [1], the Inhibition percent is 6.90%. For the molecule `CCc1ccccc1NC(=O)CN1CC[C@@]2(NC(C)=O)CN(C(C)=O)[C@H](c3ccccc3)[C@H]2C1` [BDH_33623049], the Inhibition percent under setting [2] is reported as -1.00%. On the same count and under the same terms, the same measure for `O=C(c1cccc(-n2cnnc2)c1)N1CCOCC(Cc2cccc3occc23)C1` (centres unmarked) [BDH_32340409]: -8.70%. Turning to `Cc1cccc(Nc2ccc(C3CCCN3C(=O)COc3ccc4c(c3)OCCO4)nc2)n1` (centres unmarked) [BDD_25671481], under setting [1], the Inhibition percent is on record as 3.48%. Take `O=C(CC1CCN(C(=O)C2(c3ccc(F)cc3)CCCC2)CC1)Nc1ccc2nccnc2c1` [BDH_32356175]: the Inhibition percent under setting [2] turned out to be 0.45%.

For the molecule `O=C(Cn1cccn1)N1CCOC(c2cc(C(=O)N3CCOCC3)c3ccccc3n2)C1` (centres unmarked) [BDD_24083810], the Inhibition percent under setting [1] is -2.04%. With `CC(C)(C)OC(=O)N1[C@@H](CNC(=O)CCc2c[nH]c3ccccc23)C[C@@]2(C)[C@@H](O)CCCC[C@@H]12` [BDH_33903570], the Inhibition percent under setting [1] was determined as 3.52%. `O=C(O)c1ccccc1CN1CCCC(c2ncc(Cc3ccc(Cl)cc3)o2)C1` (centres unmarked) [BDE_33511194]: the Inhibition percent under setting [2] is listed as -2.52%.

Regarding `CCN1C(=O)CC[C@@H](C(=O)NCCOc2ccccc2)[C@@H]1c1ccccc1F` [BDC_32230426], the Inhibition percent under setting [1] came to 0.19%. On to `Cc1ncc(C(=O)N2CCC[C@@H]3[C@H]2C/C=C/Cc2ccccc2OCC(=O)N3C)c(C)n1` [BDH_33728424], for which, under setting [2], the Inhibition percent was -2.62%. Regarding `CC1(C(=O)N2CCOCC(Cc3ccc4ncccc4c3)C2)CCN(C(=O)c2ccccc2)CC1` (centres unmarked) [BDH_32372082], under setting [1], the Inhibition percent was determined as 0.77%. On to `O=C(c1ccccc1Cn1ccnc1)N1CCCC(c2cccc(Cc3ccc(F)cc3)n2)C1` (centres unmarked) [BDH_32363926], for which the Inhibition percent under setting [1] came out at 1.46%. Regarding `Cc1ccc(NC(=O)CN2[C@H](Cc3ccccc3)C[C@]3(C)NC(=O)CCC[C@H]23)cc1F` [BDH_33625782], the Inhibition percent under setting [1] stood at 10.91%. On to `CC(=O)N1CCN(CC(=O)NCCc2nc3ccccc3[nH]2)CC1c1ccc(C(F)(F)F)cc1` (centres unmarked) [BDH_33616082], for which the Inhibition percent under setting [2] is given as -1.86%.

For the molecule `O=C1COC2(CCCN(C(=O)c3cccc4cccnc34)CC2)CN1CCc1ccccc1` (centres unmarked) [BDH_32296359], under setting [2], the Inhibition percent was -0.70%.

In the case of `Cc1nccn1Cc1ccccc1C(=O)N1CCCC(Cc2cccc3cccnc23)C1` (centres unmarked) [BDH_32339247], under setting [2], the Inhibition percent is recorded as -0.91%. Turning to `O=C1CCCC[C@]2(CN(Cc3ccnc(N4CCOCC4)n3)C[C@H]2c2cccc(F)c2)N1` [BDH_32352634], the Inhibition percent under setting [2] is reported as -4.25%.
